Assay results as given in the NIST ThermoML archive (doi:10.1016/j.jct.2010.08.021).
Values joined by “and” are separate entries in the source; they are usually repeats but may differ in a detail not shown here. Identical values can stand only once.

Test: mn = molality of the nth substance listed, in mol/kg
Settings: 101 kPa, Liquid; for speed of sound: Sing-around technique in a fixed-path interferometer; for mass density: Vibrating tube method

N.N.O=C(O)CC(O)(CC(=O)O)C(=O)O [ammonium citrate, dibasic] + O
Settings | mass density, 288.15 K | mass density, 293.15 K | mass density, 298.15 K | speed of sound, 288.15 K | speed of sound, 293.15 K | speed of sound, 298.15 K
m1 = 0.0059 | 999.706 kg/m3 | 998.799 kg/m3 | 997.633 kg/m3 | 1467.4 m/s | 1483.5 m/s | 1497.7 m/s
m1 = 0.0071 | 999.822 kg/m3 | 998.916 kg/m3 | 997.747 kg/m3 | 1467.6 m/s | 1483.7 m/s | 1497.9 m/s
m1 = 0.0087 | 999.992 kg/m3 | 999.084 kg/m3 | 997.913 kg/m3 | 1467.9 m/s | 1483.9 m/s | 1498.1 m/s
m1 = 0.0129 | 1000.42 kg/m3 | 999.5 kg/m3 | 998.325 kg/m3 | 1468.5 m/s | 1484.5 m/s | 1498.7 m/s
m1 = 0.0177 | 1000.9 kg/m3 | 999.976 kg/m3 | 998.796 kg/m3 | 1469.1 m/s | 1485.1 m/s | 1499.3 m/s
m1 = 0.0222 | 1001.37 kg/m3 | 1000.44 kg/m3 | 999.256 kg/m3 | 1469.7 m/s | 1485.7 m/s | 1499.9 m/s
m1 = 0.0266 | 1001.8 kg/m3 | 1000.87 kg/m3 | 999.681 kg/m3 | 1470.2 m/s | 1486.2 m/s | 1500.3 m/s
m1 = 0.0311 | 1002.26 kg/m3 | 1001.32 kg/m3 | 1000.12 kg/m3 | 1470.9 m/s | 1486.8 m/s | 1501 m/s
m1 = 0.0354 | 1002.69 kg/m3 | 1001.75 kg/m3 | 1000.55 kg/m3 | 1471.5 m/s | 1487.4 m/s | 1501.5 m/s
m1 = 0.0423 | 1003.38 kg/m3 | 1002.43 kg/m3 | 1001.23 kg/m3 | 1472.4 m/s | 1488.3 m/s | 1502.4 m/s
m1 = 0.0446 | 1003.62 kg/m3 | 1002.67 kg/m3 | 1001.46 kg/m3 | 1472.8 m/s | 1488.7 m/s | 1502.7 m/s
m1 = 0.0468 | 1003.84 kg/m3 | 1002.88 kg/m3 | 1001.67 kg/m3 | 1473.1 m/s | 1488.9 m/s | 1503 m/s
m1 = 0.0492 | 1004.09 kg/m3 | 1003.13 kg/m3 | 1001.92 kg/m3 | 1473.4 m/s | 1489.3 m/s | 1503.3 m/s
m1 = 0.0562 | 1004.75 kg/m3 | 1003.78 kg/m3 | 1002.56 kg/m3 | 1474.3 m/s | 1490.1 m/s | 1504.1 m/s
m1 = 0.0645 | 1005.59 kg/m3 | 1004.61 kg/m3 | 1003.38 kg/m3 | 1475.4 m/s | 1491.2 m/s | 1505.2 m/s
m1 = 0.0748 | 1006.57 kg/m3 | 1005.58 kg/m3 | 1004.34 kg/m3 | 1476.8 m/s | 1492.5 m/s | 1506.4 m/s
m1 = 0.0797 | 1007.07 kg/m3 | 1006.07 kg/m3 | 1004.83 kg/m3 | 1477.4 m/s | 1493.1 m/s | 1507 m/s
m1 = 0.09 | 1008.08 kg/m3 | 1007.07 kg/m3 | 1005.81 kg/m3 | 1478.8 m/s | 1494.4 m/s | 1508.2 m/s
m1 = 0.5 | 1044.77 kg/m3 and 1044.77 kg/m3 and 1044.73 kg/m3 | 1043.38 kg/m3 and 1043.38 kg/m3 and 1043.34 kg/m3 | 1041.8 kg/m3 and 1041.8 kg/m3 and 1041.76 kg/m3 | 1529.2 m/s and 1529 m/s and 1529 m/s | 1542.8 m/s and 1542.6 m/s and 1542.7 m/s | 1554.8 m/s and 1554.6 m/s and 1554.6 m/s
m1 = 0.988 | 1082.62 kg/m3 | 1080.92 kg/m3 | 1079.09 kg/m3 | 1585.1 m/s | 1596.5 m/s | 1606.5 m/s
m1 = 0.997 | 1082.58 kg/m3 | 1080.88 kg/m3 | 1079.04 kg/m3 | 1584.9 m/s | 1596.4 m/s | 1606.4 m/s
m1 = 0.998 | 1082.63 kg/m3 | 1080.93 kg/m3 | 1079.09 kg/m3 | 1585 m/s | 1596.5 m/s | 1606.5 m/s
